{
  "source": "ChEMBL document CHEMBL1146422",
  "about": "“Isolation and structure of the human cancer cell growth inhibitory cyclodepsipeptide dolastatin 16” (1997)",
  "assay_type_in_all_cases": "functional",
  "key": {"[1]": {"test_system": "NCI-H460", "assay": "Growth inhibition of human NCI-H460 cells"}, "[2]": {"test_system": "KM-20L2", "assay": "Growth inhibition of human KM20L2 cells"}, "[3]": {"test_system": "SF-295", "assay": "Growth inhibition of human SF295 cells"}, "[4]": {"test_system": "SK-MEL-5", "assay": "Growth inhibition of human SK-MEL-5 cells"}, "[5]": {"test_system": "MCF7", "assay": "Growth inhibition of human MCF7 cells"}, "[6]": {"test_system": "MDA-MB-435", "assay": "Growth inhibition of human MDA-MB-435 cells"}, "[7]": {"test_system": "MDA-N", "assay": "Growth inhibition of human MDA-N cells"}},
  "note": "*1 amine or outer side, *2 acyl side, *3 side chain or, on linkers, in order; H or OH if unused. Where a SMILES comes first, the peptide text is derived from it. [ ]: non-standard residue; d: D form. X1 = CC(Cc1ccccc1)C(N[*:1])C(=O)[*:2]; X2 = CC(C)C(N[*:1])C(C)C(=O)[*:2]; dNMeV = CN[C@@H](C(=O)O)C(C)C; dHiv = CC(C)[C@@H](O)C(=O)O; Lac = C[C@H](O)C(=O)O",
  "data": [
    {"compound": "CC(C)C1NC(=O)[C@@H]2CCCN2C(=O)C(C(C)Cc2ccccc2)NC(=O)[C@@H]2CCCN2C(=O)[C@@H](C(C)C)N(C)C(=O)[C@@H](C(C)C)OC(=O)[C@@H]2CCCN2C(=O)[C@H](C)OC(=O)C1C", "note": "(some centres not stated) [DOLASTATIN 16] (cyclo([Lac]P[dHiv][dNMeV]P[X1]P[X2]))", "values": [
      {"measurement": "GI50", "setting": "[1]", "result": 0.96, "unit": "ng/mL"},
      {"measurement": "GI50", "setting": "[2]", "result": 1.2, "unit": "ng/mL"},
      {"measurement": "GI50", "setting": "[3]", "result": 5.2, "unit": "ng/mL"},
      {"measurement": "GI50", "setting": "[4]", "result": 3.3, "unit": "ng/mL"},
      {"measurement": "GI50", "setting": "[5]", "result": 0.0479, "unit": "µM"},
      {"measurement": "GI50", "setting": "[6]", "result": 0.0347, "unit": "µM"},
      {"measurement": "GI50", "setting": "[7]", "result": 0.0288, "unit": "µM"}
    ]}
  ]
}
